Test results taken from the Deep4Chem optical property database.

Assay: solvent given as SMILES

COC(=O)COc1ccc(/C=C/C2=[N+]3C(=C(c4ccc(N(C)C)cc4)c4c(C)cc(C)n4[B-]3(F)F)C(C)=C2)cc1
absorption maximum (in CO): 566 nm

CCCCCCCCCCCCCCCC[n+]1ccc(/C=C(\C)c2ccccc2)cc1
absorption maximum (in C1COCCO1): 387.4 nm
absorption maximum (in CC(C)=O): 383.2 nm
absorption maximum (in CC(C)O): 385.4 nm
absorption maximum (in CCCCCC): 398.5 nm
absorption maximum (in CCCCO): 390.5 nm
absorption maximum (in CCCO): 398.5 nm
absorption maximum (in CCO): 399.5 nm
absorption maximum (in CN(C)C=O): 384.4 nm
absorption maximum (in CO): 400.6 nm
absorption maximum (in CS(C)=O): 384.6 nm
absorption maximum (in Cc1ccccc1): 393.5 nm
absorption maximum (in ClC(Cl)(Cl)Cl): 399.5 nm
absorption maximum (in ClC(Cl)Cl): 384 nm
absorption maximum (in ClCCl): 386.4 nm
absorption maximum (in c1ccccc1): 386.8 nm

CCCCCCCCn1nnc(-c2ccc(C#Cc3ccc(C#Cc4ccc(-c5nnn(CCCCCCCC)n5)cc4)c4nc5c6ccccc6c6ccccc6c5nc34)cc2)n1
absorption maximum (in C1CCOC1): 428 nm
absorption maximum (in Cc1ccccc1): 428 nm
absorption maximum (in ClCCl): 428 nm

CCOC(=O)c1sc2nc3c(c(C#N)c2c1N)CCCC3
absorption maximum (in c1ccccc1): 420 nm

CCCCNC(=O)c1nc2c(N(C)C)nc(N(C)C)nc2n1Cc1ccccc1
absorption maximum (in C1COCCO1): 332 nm
absorption maximum (in CC#N): 333 nm
absorption maximum (in CO): 335 nm
absorption maximum (in ClCCl): 338 nm

COc1ccc(-n2c(-c3ccc(-c4cncc5ccccc45)cc3)nc(-c3ccccc3)c2-c2ccccc2)cc1
absorption maximum (in C1CCOC1): 328 nm

CC1=CC(/C=C/c2ccc(OCCCN=[N+]=[N-])cc2)=[N+]2C1=C(c1ccccc1)c1c(C)cc(C)n1[B-]2(F)F
absorption maximum (in CO): 564 nm

c1ccc2c(c1)c1ccccc1n2-c1ccc(-c2ccn3nc(-c4ccc(-n5c6ccccc6c6ccccc65)cc4)nc3c2)cc1
absorption maximum (in C1CCOC1): 342 nm

CC(C)(C)c1ccc(/C=C/c2ccc(N(c3ccc(/C=C/c4ccc(C(C)(C)C)cc4)cc3)c3ccc(-c4nc5ccccc5nc4-c4ccc(N(c5ccc(/C=C/c6ccc(C(C)(C)C)cc6)cc5)c5ccc(/C=C/c6ccc(C(C)(C)C)cc6)cc5)cc4)cc3)cc2)cc1
absorption maximum (in C1CCOC1): 375 nm
absorption maximum (in Cc1ccccc1): 373 nm

CN(/N=C1\N=C(N)C2(CCCC2)c2ccccc21)c1ccccc1
absorption maximum (in ClCCl): 378 nm

C(=C1c2ccccc2-c2ccccc21)c1ccc(C=C2c3ccccc3-c3ccccc32)cc1
absorption maximum (in C1CCOC1): 365 nm

CCCCC1(CCCC)c2cc(C#Cc3ccc4ccc5cccc6ccc3c4c56)ccc2-c2ccc(C#Cc3ccc4ccc5cccc6ccc3c4c56)cc21
absorption maximum (in C1CCCCC1): 418 nm
absorption maximum (in C1CCOC1): 421 nm
absorption maximum (in CC#N): 420 nm
absorption maximum (in CCOC(C)=O): 419 nm
absorption maximum (in CN(C)C=O): 427 nm
absorption maximum (in Cc1ccccc1): 424 nm
absorption maximum (in ClC(Cl)Cl): 421 nm
absorption maximum (in ClCCl): 424 nm

O=C1C=C(Nc2ccc([N+](=O)[O-])cc2)C(=O)c2ccccc21
absorption maximum (in CO): 451 nm

CC1(C)c2ccccc2N(c2ccc(-c3cc(-c4ccccc4)nc(-c4ccccc4)n3)cc2)c2ccccc21
absorption maximum (in Cc1ccccc1): 374.95 nm

COC(=O)c1cc(/N=N/c2cc3c4c(c2)CCCN4CCC3)cc(C(=O)OC)c1
absorption maximum (in CCOC(C)=O): 471 nm

F[B-]1(F)n2c(cc3sc4ccccc4c32)C(c2ccc(I)cc2)=C2C=c3sc4ccccc4c3=[N+]21
absorption maximum (in ClC(Cl)Cl): 658 nm

CCOC(=O)/C=C/c1cc2ccc(-c3cn(Cc4ccccc4)nn3)cc2oc1=O
absorption maximum (in CCO): 358 nm

Cc1ccc(-c2cc(-c3ccccc3)c3c(N)nc(N4CCCC4)c(C#N)c3n2)cc1
absorption maximum (in CC#N): 412 nm
absorption maximum (in CC(C)=O): 414 nm
absorption maximum (in CC(C)O): 414 nm
absorption maximum (in CO): 414 nm
absorption maximum (in ClC(Cl)Cl): 420 nm
absorption maximum (in ClCCl): 420 nm
absorption maximum (in c1ccccc1): 424 nm

CCCCCCN1C(=O)c2cccc3c(-c4ccc([N+](=O)[O-])s4)ccc(c23)C1=O
absorption maximum (in ClC(Cl)Cl): 363 nm

C1=Cc2ccccc2C(=Cc2ccc(C=C3c4ccccc4C=Cc4ccccc43)cc2)c2ccccc21
absorption maximum (in C1CCOC1): 333 nm

Cc1cccc(C)c1N1C(c2ccccc2)=Cc2cccc[n+]2[B-]1(F)F
absorption maximum (in ClCCl): 397 nm

CN(C)c1ccc2c(-c3ccc(C(=O)[O-])cc3C(=O)[O-])c3ccc(=[N+](C)C)cc-3oc2c1
absorption maximum (in CCO): 540 nm
absorption maximum (in O): 548 nm

COc1cc2c3c4c(c5ccc(C(C)(C)C)cc5c5c(OC)cc(OC)c(c2c(OC)c1OC)c45)=[N+]1C3=Nc2c3c4cc(OC)c(OC)c(OC)c4c4c(OC)cc(OC)c5c6cc(C(C)(C)C)ccc6c(c3c54)n2[B-]1(F)F
absorption maximum (in Cc1ccccc1): 878 nm

CCC1=C(C)C2=Cc3c(I)c(I)cn3[B-](F)(F)[N+]2=C1C
absorption maximum (in C1CCCCC1): 527.5 nm
absorption maximum (in CC(C)=O): 509 nm
absorption maximum (in CCO): 517.5 nm
absorption maximum (in CCOC(C)=O): 515 nm
absorption maximum (in CO): 513 nm
absorption maximum (in OCC(F)(F)F): 501 nm

CC(C)(C)c1ccc2c3c(c4ccc(C(C)(C)C)cc4c2c1)=[N+]1C(=C(c2ccccc2)c2cc4c5ccc(C(C)(C)C)cc5c5cc(C(C)(C)C)ccc5c4n2[B-]1(F)F)C=3
absorption maximum (in C1CCCCC1): 693 nm
absorption maximum (in C1CCOC1): 689 nm
absorption maximum (in CC#N): 683 nm
absorption maximum (in Cc1ccccc1): 694 nm
absorption maximum (in ClCCl): 691 nm

CCOC(=O)CCOc1ccc(C(c2c(C)[nH]c3ccccc23)c2c(C)[nH]c3ccccc23)cc1
absorption maximum (in C1CCCCC1): 290 nm

CCCCCCOc1cc(N(CC)CC)ccc1/C=C(\C#N)c1ccc(/C=C/C(=C(C#N)C#N)c2ccc(N(c3ccccc3)c3ccccc3)cc2)s1
absorption maximum (in ClCCl): 557 nm

Oc1cccc2ccccc12
absorption maximum (in C1CCCCC1): 303.49 nm

CN1C(=CC2=C([O-])C(=CC3=[N+](C)c4ccccc4C3(C)C)C2=C2C(=O)NC(=O)NC2=O)C(C)(C)c2ccccc21
absorption maximum (in ClC(Cl)Cl): 644 nm

COC(=O)C1=C(C(=O)OC)C2(c3cc([N+](=O)[O-])ccc3-c3ccc([N+](=O)[O-])cc32)C2(/C=C/c3ccccc3)c3cc(OC)c(OC)cc3CCN12 (stereo not drawn)
absorption maximum (in ClCCl): 337 nm

CC(C)[Si](C#Cc1ccc(C#C[Si](C(C)C)(C(C)C)C(C)C)c2nc3c(nc12)Cc1ccccc1-3)(C(C)C)C(C)C
absorption maximum (in CCCCCC): 369 nm

CC[n+]1ccc2ccccc2c1/C=C/c1c([O-])ccc2ccc(=O)oc12
absorption maximum (in C1CCOC1): 629.86 nm
absorption maximum (in CC#N): 591.03 nm
absorption maximum (in CC(C)=O): 603.44 nm
absorption maximum (in CO): 535.64 nm
absorption maximum (in CS(C)=O): 593.42 nm
absorption maximum (in Cc1ccccc1): 655.01 nm
absorption maximum (in ClC(Cl)Cl): 614.58 nm
absorption maximum (in ClCCl): 614.58 nm
absorption maximum (in O): 491.71 nm

CCn1c2c(-c3cccs3)cc(C(C)(C)C)cc2c2cc(C(C)(C)C)cc(-c3cccs3)c21
absorption maximum (in ClCCl): 360 nm

O=c1oc2ccccc2cc1-c1cn2ccccc2n1
absorption maximum (in ClC(Cl)Cl): 349 nm

CC(C)(C)NC1=C2C=CC=[N+]2[B-](F)(F)n2cccc21
absorption maximum (in C1CCCCC1): 428 nm
absorption maximum (in CC(C)=O): 409.5 nm
absorption maximum (in CCO): 412.5 nm
absorption maximum (in CCOC(C)=O): 412 nm
absorption maximum (in CO): 410 nm
absorption maximum (in OCC(F)(F)F): 406 nm

CC(C)(C)c1ccc2oc3nc4oc5ccc(-n6c7ccccc7c7ccccc76)cc5c4cc3c2c1
absorption maximum (in ClC(Cl)Cl): 348 nm

CCCCCCCCCCCCCCCCCCN1C(=O)c2ccc3c4ccc5c6c(ccc(c7ccc(c2c37)C1=O)c64)C(=O)NC5=O
absorption maximum (in CN(C)C=O): 523 nm

CCCCCCCCC1(CCCCCCCC)c2ccccc2-c2ccc(-c3nnc(-c4ccc(-n5c6ccc(C(C)(C)C)cc6c6cc(C(C)(C)C)ccc65)cc4)o3)cc21
absorption maximum (in Cc1ccccc1): 352 nm

CC1=CC(/C=C/c2ccc(N(C)C)cc2)=[N+]2C1=C(c1ccc(I)cc1)c1c(C)cc(/C=C/c3ccc(N(C)C)cc3)n1[B-]2(F)F
absorption maximum (in CC#N): 701 nm

Oc1ccc(/N=C/c2ccccc2Oc2ccccc2)cc1
absorption maximum (in C1CCCCC1): 348 nm
absorption maximum (in C1COCCO1): 341 nm
absorption maximum (in CC#N): 350 nm
absorption maximum (in CC(C)=O): 342 nm
absorption maximum (in CC(C)CO): 344 nm
absorption maximum (in CC(C)O): 344 nm
absorption maximum (in CCCCC): 341 nm
absorption maximum (in CCCCCC): 346 nm
absorption maximum (in CCCCO): 346 nm
absorption maximum (in CCCCOC(C)=O): 346 nm
absorption maximum (in CCCO): 345 nm
absorption maximum (in CCOC(C)=O): 340 nm
absorption maximum (in CCOCC): 345 nm
absorption maximum (in CN(C)C=O): 345 nm
absorption maximum (in CO): 342 nm
absorption maximum (in CS(C)=O): 348 nm
absorption maximum (in Cc1ccccc1): 342 nm
absorption maximum (in Cc1ccccc1C): 382 nm
absorption maximum (in ClC(Cl)Cl): 343 nm
absorption maximum (in N#Cc1ccccc1): 341 nm
absorption maximum (in c1ccccc1): 345 nm

COc1ccc(-n2nc(C#N)c(NC3CCCCC3)n2)cc1
absorption maximum (in CC#N): 330 nm
absorption maximum (in CCCCCC): 325 nm
absorption maximum (in CCO): 333 nm
absorption maximum (in CN(C)C=O): 336 nm
absorption maximum (in ClC(Cl)Cl): 330 nm

CC1(C)c2ccccc2N(c2ccc(C(=O)/C=C(\O)c3ccc(N4c5ccccc5C(C)(C)c5ccccc54)cc3)cc2)c2ccccc21
absorption maximum (in Cc1ccccc1): 406 nm

COc1cc2c3cc(OC)c(OC)cc3c3cc4c(C)cc(=O)oc4cc3c2cc1OC
absorption maximum (in C1CCOC1): 366 nm
absorption maximum (in CO): 364 nm
absorption maximum (in CS(C)=O): 370 nm
absorption maximum (in Cc1ccccc1): 366 nm
absorption maximum (in ClC(Cl)Cl): 368 nm

COc1cc(C=O)cc(-c2[nH]c(=O)n3c2-c2ccccc2C3=O)c1O
absorption maximum (in CC#N): 390 nm
absorption maximum (in CO): 398 nm
absorption maximum (in ClCCl): 390 nm

Cc1ccccc1C(=O)NN1C2=C(CC3=C1CC(C)(C)CC3=O)C(=O)CC(C)(C)C2
absorption maximum (in C1CCOC1): 370 nm
absorption maximum (in CC#N): 370 nm
absorption maximum (in CC(C)=O): 368 nm
absorption maximum (in CCCCCO): 378 nm
absorption maximum (in CO): 376 nm
absorption maximum (in ClC(Cl)Cl): 370 nm
absorption maximum (in ClCCl): 368 nm

CCCCc1ccc2c(c1)c1ccc3cccc4c3c1c1c2c2cccc3ccc5c6cc(CCCC)ccc6c4c1c5c32
absorption maximum (in ClCCl): 492 nm

O=C(O)CCCCCn1c2ccc(Br)cc2c(=O)c2cc(Br)ccc21
absorption maximum (in O): 425 nm

CCC1=C(C)C2=Cc3c4ccccc4c4n3[B-](c3ccc5cc6ccccc6cc5c3)(Oc3ccccc3-4)[N+]2=C1C (stereo not drawn)
absorption maximum (in CC#N): 621 nm
absorption maximum (in CCCCCC): 626 nm
absorption maximum (in Cc1ccccc1): 630 nm
absorption maximum (in ClCCl): 627 nm
